Literature values, collected in patent EP4582084A1, “CRYSTAL FORM OF KETOAMIDE DERIVATIVE AND PREPARATION METHOD THEREFOR” (Guangdong Raynovent Biotech Co., Ltd., priority 2022, dated 2024).

System: novel coronavirus
Conditions: in vitro, preclinical trials

Which EC50 does the source give for `Cn1cnc(Cn2c(=O)[nH]/c(=N\c3cc4cn(C)nc4cc3Cl)n(Cc3cc(F)c(F)cc3F)c2=O)n1` [S-217622] here?
Its EC50 is 370 nM.
